Laboratory results: ChEMBL document CHEMBL1671689, “Activity of ceftaroline against recent emerging serotypes of Streptococcus pneumoniae in the United States” (2010)

Columns and labels:
Assay type in all cases: functional
[1] = test system: Streptococcus pneumoniae; assay: Antimicrobial activity against Streptococcus pneumoniae serotype 11A assessed as percent susceptible isolates by broth microdilution method in presence of beta-lactamase inhibitor clavulanic acid
[2] = test system: Streptococcus pneumoniae; assay: Antimicrobial activity against Streptococcus pneumoniae serotype 35B assessed as percent susceptible isolates by broth microdilution method in presence of beta-lactamase inhibitor clavulanic acid
[3] = test system: Streptococcus pneumoniae; assay: Antimicrobial activity against multiple drug resistant Streptococcus pneumoniae serotype 19A by broth microdilution method in presence of beta-lactamase inhibitor clavulanic acid
[4] = test system: Streptococcus pneumoniae; assay: Antimicrobial activity against multiple drug resistant Streptococcus pneumoniae serotype 6B by broth microdilution method in presence of beta-lactamase inhibitor clavulanic acid
[5] = test system: Streptococcus pneumoniae; assay: Antimicrobial activity against Streptococcus pneumoniae serotype 7F by broth microdilution method in presence of beta-lactamase inhibitor clavulanic acid
[6] = test system: Streptococcus pneumoniae; assay: Antimicrobial activity against multiple drug resistant Streptococcus pneumoniae serotype 19F assessed as percent susceptible isolates by broth microdilution method in presence of beta-lactamase inhibitor clavulanic acid
[7] = test system: Streptococcus pneumoniae; assay: Antimicrobial activity against Streptococcus pneumoniae serotype 11A by broth microdilution method in presence of beta-lactamase inhibitor clavulanic acid
[8] = test system: Streptococcus pneumoniae; assay: Antimicrobial activity against Streptococcus pneumoniae serotype 15A assessed as percent susceptible isolates by broth microdilution method in presence of beta-lactamase inhibitor clavulanic acid
[9] = test system: Streptococcus pneumoniae; assay: Antimicrobial activity against Streptococcus pneumoniae serotype 19F assessed as percent susceptible isolates by broth microdilution method in presence of beta-lactamase inhibitor clavulanic acid
[10] = test system: Streptococcus pneumoniae; assay: Antimicrobial activity against Streptococcus pneumoniae serotype 23B assessed as percent susceptible isolates by broth microdilution method in presence of beta-lactamase inhibitor clavulanic acid
[11] = test system: Streptococcus pneumoniae; assay: Antimicrobial activity against Streptococcus pneumoniae serotype 7F assessed as percent susceptible isolates by broth microdilution method in presence of beta-lactamase inhibitor clavulanic acid
[12] = test system: Streptococcus pneumoniae; assay: Antimicrobial activity against Streptococcus pneumoniae serotype 15A assessed as percent susceptible isolates by broth microdilution method
[13] = test system: Streptococcus pneumoniae; assay: Antimicrobial activity against Streptococcus pneumoniae serotype 22F assessed as percent susceptible isolates by broth microdilution method in presence of beta-lactamase inhibitor clavulanic acid
[14] = test system: Streptococcus pneumoniae; assay: Antimicrobial activity against Streptococcus pneumoniae serotype 3 by broth microdilution method in presence of beta-lactamase inhibitor clavulanic acid
[15] = test system: Streptococcus pneumoniae; assay: Antimicrobial activity against Streptococcus pneumoniae serotype 6C by broth microdilution method in presence of beta-lactamase inhibitor clavulanic acid
[16] = test system: Streptococcus pneumoniae; assay: Antimicrobial activity against Streptococcus pneumoniae serotype 6C assessed as percent susceptible isolates by broth microdilution method in presence of beta-lactamase inhibitor clavulanic acid
[17] = test system: Streptococcus pneumoniae; assay: Antimicrobial activity against multiple drug resistant Streptococcus pneumoniae serotype 19A assessed as percent susceptible isolates by broth microdilution method in presence of beta-lactamase inhibitor clavulanic acid
[18] = test system: Streptococcus pneumoniae; assay: Antimicrobial activity against Streptococcus pneumoniae serotype 19A assessed as percent susceptible isolates by broth microdilution method in presence of beta-lactamase inhibitor clavulanic acid
[19] = test system: Streptococcus pneumoniae; assay: Antimicrobial activity against Streptococcus pneumoniae serotype 23A assessed as percent susceptible isolates by broth microdilution method in presence of beta-lactamase inhibitor clavulanic acid
[20] = test system: Streptococcus pneumoniae; assay: Antimicrobial activity against multiple drug resistant Streptococcus pneumoniae serotype 6B assessed as percent susceptible isolates by broth microdilution method in presence of beta-lactamase inhibitor clavulanic acid
[21] = test system: Streptococcus pneumoniae; assay: Antimicrobial activity against Streptococcus pneumoniae serotype 3 assessed as percent susceptible isolates by broth microdilution method in presence of beta-lactamase inhibitor clavulanic acid
[22] = test system: Streptococcus pneumoniae; assay: Antimicrobial activity against Streptococcus pneumoniae serotype 35B by broth microdilution method in presence of beta-lactamase inhibitor clavulanic acid
[23] = test system: Streptococcus pneumoniae; assay: Antimicrobial activity against multiple drug resistant Streptococcus pneumoniae serotype 19F by broth microdilution method in presence of beta-lactamase inhibitor clavulanic acid
[24] = test system: Streptococcus pneumoniae; assay: Antimicrobial activity against Streptococcus pneumoniae serotype 19A by broth microdilution method in presence of beta-lactamase inhibitor clavulanic acid
[25] = test system: Streptococcus pneumoniae; assay: Antimicrobial activity against Streptococcus pneumoniae serotype 11A by broth microdilution method
[26] = test system: Streptococcus pneumoniae; assay: Antimicrobial activity against Streptococcus pneumoniae serotype 23B assessed as percent susceptible isolates by broth microdilution method
[27] = test system: Streptococcus pneumoniae; assay: Antimicrobial activity against multiple drug resistant Streptococcus pneumoniae serotype 19A by broth microdilution method
[28] = test system: Streptococcus pneumoniae; assay: Antimicrobial activity against Streptococcus pneumoniae serotype 11A assessed as percent susceptible isolates by broth microdilution method
[29] = test system: Streptococcus pneumoniae; assay: Antimicrobial activity against Streptococcus pneumoniae serotype 35B assessed as percent susceptible isolates by broth microdilution method
[30] = test system: Streptococcus pneumoniae; assay: Antimicrobial activity against multiple drug resistant Streptococcus pneumoniae serotype 6B by broth microdilution method
[31] = test system: Streptococcus pneumoniae; assay: Antimicrobial activity against multiple drug resistant Streptococcus pneumoniae serotype 6B assessed as percent susceptible isolates by broth microdilution method
[32] = test system: Streptococcus pneumoniae; assay: Antimicrobial activity against Streptococcus pneumoniae serotype 19A assessed as percent susceptible isolates by broth microdilution method
[33] = test system: Streptococcus pneumoniae; assay: Antimicrobial activity against Streptococcus pneumoniae serotype 22F assessed as percent susceptible isolates by broth microdilution method
[34] = test system: Streptococcus pneumoniae; assay: Antimicrobial activity against Streptococcus pneumoniae serotype 23A assessed as percent susceptible isolates by broth microdilution method
[35] = test system: Streptococcus pneumoniae; assay: Antimicrobial activity against Streptococcus pneumoniae serotype 3 by broth microdilution method
[36] = test system: Streptococcus pneumoniae; assay: Antimicrobial activity against multiple drug resistant Streptococcus pneumoniae serotype 19A assessed as percent susceptible isolates by broth microdilution method
[37] = test system: Streptococcus pneumoniae; assay: Antimicrobial activity against Streptococcus pneumoniae serotype 19A by broth microdilution method
[38] = test system: Streptococcus pneumoniae; assay: Antimicrobial activity against Streptococcus pneumoniae serotype 3 assessed as percent susceptible isolates by broth microdilution method
[39] = test system: Streptococcus pneumoniae; assay: Antimicrobial activity against multiple drug resistant Streptococcus pneumoniae serotype 19F by broth microdilution method
[40] = test system: Streptococcus pneumoniae; assay: Antimicrobial activity against multiple drug resistant Streptococcus pneumoniae serotype 19F assessed as percent susceptible isolates by broth microdilution method
[41] = test system: Streptococcus pneumoniae; assay: Antimicrobial activity against Streptococcus pneumoniae serotype 7F by broth microdilution method
[42] = test system: Streptococcus pneumoniae; assay: Antimicrobial activity against Streptococcus pneumoniae serotype 35B by broth microdilution method
[43] = test system: Streptococcus pneumoniae; assay: Antimicrobial activity against Streptococcus pneumoniae serotype 6C by broth microdilution method
[44] = test system: Streptococcus pneumoniae; assay: Antimicrobial activity against Streptococcus pneumoniae serotype 19F assessed as percent susceptible isolates by broth microdilution method
[45] = test system: Streptococcus pneumoniae; assay: Antimicrobial activity against Streptococcus pneumoniae serotype 7F assessed as percent susceptible isolates by broth microdilution method
[46] = test system: Streptococcus pneumoniae; assay: Antimicrobial activity against Streptococcus pneumoniae serotype 6C assessed as percent susceptible isolates by broth microdilution method

In the case of `CC1(C)S[C@@H]2[C@H](NC(=O)[C@H](N)c3ccc(O)cc3)C(=O)N2[C@H]1C(=O)O` [AMOXICILLIN], the Activity [1] is reported as 98%, the Activity [2] is reported as 62.7% and the MIC50 [3] is reported as 8 µg/mL. It also gave an MIC90 [3] of 16 µg/mL, an MIC50 [4] of 8 µg/mL and an MIC90 [4] of 16 µg/mL. The MIC [5] was no more than 1 µg/mL, the MIC50 [5] was no more than 1 µg/mL and the MIC90 [5] was no more than 1 µg/mL. It also gave an Activity [6] of 8.1%, an MIC [7] of no more than 1 µg/mL and an MIC50 [7] of no more than 1 µg/mL. The MIC90 [7] was no more than 1 µg/mL, the Activity [8] was 100% and the Activity [9] was 37.9%. For the same compound, the Activity [10] was 100%, the Activity [11] was 62.7% and the Activity [12] was 100%. For the same compound, the Activity [13] was 100%, the MIC [14] was no more than 1 µg/mL and the MIC50 [14] was no more than 1 µg/mL. It also gave an MIC90 [14] of no more than 1 µg/mL, an MIC [15] of no more than 1 µg/mL and an MIC50 [15] of no more than 1 µg/mL. The MIC90 [15] was no more than 1 µg/mL, the Activity [16] was 100% and the Activity [17] was 8.1%. For the same compound, the Activity [18] was 45%, the Activity [19] was 100% and the Activity [20] was 8.1%. The Activity [21] was 100%, the MIC50 [22] was 2 µg/mL and the MIC90 [22] was 4 µg/mL. The MIC50 [23] was 8 µg/mL, the MIC90 [23] was 16 µg/mL and the MIC50 [24] was 8 µg/mL. For the same compound, the MIC90 [24] was 8 µg/mL.
`CN[C@H](CC(C)C)C(=O)N[C@H]1C(=O)N[C@@H](CC(N)=O)C(=O)N[C@H]2C(=O)N[C@H]3C(=O)N[C@H](C(=O)N[C@H](C(=O)O)c4cc(O)cc(O)c4-c4cc3ccc4O)[C@H](O)c3ccc(c(Cl)c3)Oc3cc2cc(c3O[C@@H]2O[C@H](CO)[C@@H](O)[C@H](O)[C@H]2O[C@H]2C[C@](C)(N)[C@H](O)[C@H](C)O2)Oc2ccc(cc2Cl)[C@H]1O` [VANCOMYCIN] was tested, and the MIC [25] was no more than 1 µg/mL, the MIC50 [25] was no more than 1 µg/mL and the MIC90 [25] was no more than 1 µg/mL. For the same compound, the Activity [26] was 100%, the MIC [27] was no more than 1 µg/mL and the MIC50 [27] was no more than 1 µg/mL. The MIC90 [27] was no more than 1 µg/mL, the Activity [28] was 100% and the Activity [29] was 100%. For the same compound, the MIC [30] was no more than 1 µg/mL, the MIC50 [30] was no more than 1 µg/mL and the MIC90 [30] was no more than 1 µg/mL. The Activity [12] was 100%, the Activity [31] was 100% and the Activity [32] was 100%. The Activity [33] was 100%, the Activity [34] was 100% and the MIC [35] was no more than 1 µg/mL. The MIC50 [35] was no more than 1 µg/mL, the MIC90 [35] was no more than 1 µg/mL and the Activity [36] was 100%. For the same compound, the MIC [37] was no more than 1 µg/mL, the MIC50 [37] was no more than 1 µg/mL and the MIC90 [37] was no more than 1 µg/mL. For the same compound, the Activity [38] was 100%, the MIC [39] was no more than 1 µg/mL and the MIC50 [39] was no more than 1 µg/mL. The MIC90 [39] was no more than 1 µg/mL, the Activity [40] was 100% and the MIC [41] was no more than 1 µg/mL. The MIC50 [41] was no more than 1 µg/mL, the MIC90 [41] was no more than 1 µg/mL and the MIC [42] was no more than 1 µg/mL. It also gave an MIC50 [42] of no more than 1 µg/mL, an MIC90 [42] of no more than 1 µg/mL and an MIC [43] of no more than 1 µg/mL. It also gave an MIC50 [43] of no more than 1 µg/mL, an MIC90 [43] of no more than 1 µg/mL and an Activity [44] of 100%. For the same compound, the Activity [45] was 100% and the Activity [46] was 100%.
